In US20080319000A1, “Use of 3,1IB-Cis-Dihydrotetrabenazine for the Treatment of Symptoms of Huntingtons Disease” (CAMBRIDGE LABORATORIES (IRELAND) LIMITED, priority 2005, published 2008):

How the values were obtained:
[1] = tested on: B6CBA-Tg(HDexon1)62Gpb/1J transgenic (R6/2) mice; test: Locomotor activity test in transgenic mice model of Huntington's disease; type: in vivo; settings: average recorded results, 5 mg/kg i.p.
Experimental: B6CBA-Tg(HDexon1)62Gpb/1J transgenic (R6/2) mice are transgenic for the 5-end of the human HD gene carrying (CAG) 115-(CAG) 150 repeat expansions. […] These symptoms appear between 6 and 8 weeks of age. […] The mice had access to commercial mouse chow (mouse/rate breeding, ref. 9341 Provimi Kliba, Switzerland) and tap water. […] The mice were placed in a transparent plastic box of floor dimensions 30×30 cm in a room with low light intensity (maximum 20 lux). Locomotor activity was determined during a 10 minute period using a video image analyzer (Videotrack, View Point, Lyon, France). The number, distance and average speed of ambulatory movements were measured. The mice were returned to their home cages after testing. Group 1: hemizygote Transgenic B6CBA-Tg(HDexon 1)62Gpb/1J mice treated with vehicle i.p. once a day for 4 days (from day 0 to day 3) Group 2: hemizygote Transgenic B6CBA-Tg(HDexon 1)62Gpb/1J mice treated with 5 mg/kg i.p. of test item once a day for 4 days (from day 0 to day 3) […] • Test item administration • Simplified Irwin test, 40 min after administration • Locomotor activity test, immediately after the simplified Irwin test Simplified Irwin scores were analysed using non-parametric Mann-Whitney's U test. Locomotor activity data were analysed using Dunnett's t-test. Rotarod scores were analysed using the non-parametric Mann-Whitney's U-test. Statistical analyses were performed using the software Statview SE^+graphics software, Brain Power.

[2] = tested on: Male Sprague-Dawley rats; test: Spontaneous locomotor activity in rats (sedative properties); type: in vivo; settings: for Inactivity Duration / Large movements Duration / Large movements Occurrence: rats, 20 min period, mean ± SEM n=12
Experimental: A study was carried out in rats to determine whether the dihydrotetrabenazine isomers of the invention have sedative properties. […] Male Sprague-Dawley rats, (Charles River Laboratories, Saint-Germain/L'Arbresle, France), weighing 200-250 g at the beginning of the study, were used for the studies. […] The rats were allowed to acclimatize to their conditions for at least five days before commencement of the study. The rats received food ([…], France, ref. 811002) and water (tap water in water bottle) ad libitum. Solutions of each test compound in corn oil were freshly prepared on the day of the experiment. Haloperidol was prepared in hydroxyethylcellulose, 0.5% in deionized water. Either the vehicle or the test compounds were administered as a single dose (0.3, 1, 3 and 10 mg/kg, 2 mL/kg i.p.). The reference compound haloperidol (1 mg/kg) was administered i.p. […] The animals were placed in plexiglass cages under a video camera in a room with low light intensity (maximum 50 lux). At forty five minutes and 3 hours after administration, locomotor activity was determined during 20 minute periods using a video image analyzer (Videotrack, View Point, France). […] The number and duration of ambulatory movements and duration of inactivity was measured. At the end of the locomotor activity measurement (45 minutes and 3 hours), palpebral closure and arousal were be scored as follows in the plexiglass cage: […] Image tracking was performed using a video camera placed above the plexiglass cage, recording overall locomotor activity. […] The results were expressed as the means ±SEMs of the 12 individual values. Statistical analyses were carried out using ANOVA (one way) and Dunnett's t-test and with the non parametric test of Kruskal-Wallis followed by a Mann & Whitney U-test for the sedation cotation. A p value of p<0.05 was taken as indicating significance. Group size n=12 Group 1: Reference, haloperidol (1 mg/kg i.p.) Group 2: Vehicle control group (2 ml/kg i.p.) Group 3: tetrabenazine (0.3 mg/kg i.p) Group 4: tetrabenazine (1 mg/kg i.p) Group 5: tetrabenazine (3 mg/kg i.p) Group 6: tetrabenazine (10 mg/kg i.p) Group 7: […]

[3] = biological target: T1, monoamine oxidase isoform A (Homo sapiens, UniProt P21397); test: Monoamine oxidase A inhibition; type: biochemical
T1 sequence (P21397 1-527): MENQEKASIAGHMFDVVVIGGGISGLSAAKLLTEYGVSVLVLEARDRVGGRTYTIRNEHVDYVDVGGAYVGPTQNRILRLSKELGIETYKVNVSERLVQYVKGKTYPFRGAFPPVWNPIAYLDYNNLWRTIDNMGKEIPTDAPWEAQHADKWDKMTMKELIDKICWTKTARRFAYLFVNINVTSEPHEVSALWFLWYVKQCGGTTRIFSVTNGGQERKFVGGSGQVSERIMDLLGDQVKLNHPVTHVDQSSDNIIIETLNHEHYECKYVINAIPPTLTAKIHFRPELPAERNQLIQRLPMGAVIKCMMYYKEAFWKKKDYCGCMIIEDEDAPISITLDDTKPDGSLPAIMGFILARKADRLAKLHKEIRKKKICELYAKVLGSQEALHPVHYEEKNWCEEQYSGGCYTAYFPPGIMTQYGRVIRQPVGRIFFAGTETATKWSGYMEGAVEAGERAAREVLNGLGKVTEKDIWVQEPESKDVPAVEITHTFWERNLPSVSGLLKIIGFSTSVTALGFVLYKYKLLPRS

[4] = biological target: Dopamine Transporter (DAT) (Homo sapiens, UniProt Q01959); test: Dopamine Transporter (DAT) binding
Sequence of Dopamine Transporter (DAT) (Q01959 whole entry, species assumed, canonical isoform): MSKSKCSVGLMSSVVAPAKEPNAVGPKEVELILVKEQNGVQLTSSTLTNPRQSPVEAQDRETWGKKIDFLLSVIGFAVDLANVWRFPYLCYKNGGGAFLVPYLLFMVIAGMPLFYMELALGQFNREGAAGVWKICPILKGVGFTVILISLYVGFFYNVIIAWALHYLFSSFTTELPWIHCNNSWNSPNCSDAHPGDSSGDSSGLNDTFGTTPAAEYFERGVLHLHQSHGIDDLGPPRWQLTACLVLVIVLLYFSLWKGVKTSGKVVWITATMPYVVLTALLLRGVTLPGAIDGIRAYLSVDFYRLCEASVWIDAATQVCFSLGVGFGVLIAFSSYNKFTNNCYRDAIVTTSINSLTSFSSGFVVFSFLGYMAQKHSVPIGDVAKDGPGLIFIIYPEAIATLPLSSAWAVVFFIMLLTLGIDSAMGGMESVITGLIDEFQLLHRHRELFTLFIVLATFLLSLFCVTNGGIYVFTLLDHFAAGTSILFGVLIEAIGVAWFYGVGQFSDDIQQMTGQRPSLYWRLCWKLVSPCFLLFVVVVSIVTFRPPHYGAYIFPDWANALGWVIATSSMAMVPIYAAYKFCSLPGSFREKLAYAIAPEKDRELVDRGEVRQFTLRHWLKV

[5] = biological target: 5-hydroxytryptamine isoform 1d (Homo sapiens, UniProt P28221); test: 5-hydroxytryptamine 1d inhibition; type: binding
Sequence of 5-hydroxytryptamine isoform 1d (P28221 whole entry, canonical isoform): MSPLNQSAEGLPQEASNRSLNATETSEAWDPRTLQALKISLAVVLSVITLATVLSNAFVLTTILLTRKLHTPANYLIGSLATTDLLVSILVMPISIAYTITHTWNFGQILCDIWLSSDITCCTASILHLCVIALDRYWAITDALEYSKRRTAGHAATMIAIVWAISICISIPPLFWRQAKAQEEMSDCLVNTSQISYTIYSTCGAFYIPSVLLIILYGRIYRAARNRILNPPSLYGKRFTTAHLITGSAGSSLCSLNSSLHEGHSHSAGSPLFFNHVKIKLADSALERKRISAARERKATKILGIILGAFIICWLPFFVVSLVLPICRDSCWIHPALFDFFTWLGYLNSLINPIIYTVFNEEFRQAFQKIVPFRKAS

[6] = DAY 0, 40 mn after administration
[7] = DAY 2, 40 mn after administration
[8] = 0.3 mg/kg i.p., 45 minutes after administration
[9] = 0.3 mg/kg i.p., 3 hours after administration
[10] = 1 mg/kg i.p., 45 minutes after administration
[11] = 1 mg/kg i.p., 3 hours after administration
[12] = 3 mg/kg i.p., 45 minutes after administration
[13] = 3 mg/kg i.p., 3 hours after administration
[14] = 10 mg/kg i.p., 45 minutes after administration
[15] = 10 mg/kg i.p., 3 hours after administration

COc1cc2c(cc1OC)[C@H]1C[C@H](O)[C@@H](CC(C)C)CN1CC2 (single isomer, unassigned) [Isomer B]
Inactivity Duration [1, 6]: 184 ± 31 s
Large movements Duration [1, 6]: 99 ± 13 s
Large movements Occurence (number) [1, 6]: 280 ± 41 number
Large movements Speed [1, 6]: 13.0 ± 0.5 cm/s
Inactivity Duration ([1]; DAY 0, before administration): 149 ± 27 s
Large movements Duration ([1]; DAY 0, before administration): 128 ± 16 s
Large movements Occurence (number) ([1]; DAY 0, before administration): 309 ± 37 number
Large movements Speed ([1]; DAY 0, before administration): 13.2 ± 0.5 cm/s
Inactivity Duration [1, 7]: 134 ± 18 s
Large movements Duration [1, 7]: 123 ± 14 s
Large movements Occurence (number) [1, 7]: 322 ± 40 number
Large movements Speed [1, 7]: 13.9 ± 0.7 cm/s
Inactivity Duration ([1]; DAY 24): 67 ± 42 s
Large movements Duration ([1]; DAY 24): 148 ± 34 s
Large movements Occurence (number) ([1]; DAY 24): 818 ± 168 number
Large movements Speed ([1]; DAY 24): 11.2 ± 0.9 cm/s
sedative effect ([2]; locomotor studies carried out on rats): no sedative effects were observed
Inactivity Duration [2, 8]: 346.1 ± 36.9 s
Large movements Duration [2, 8]: 72.0 ± 9.6 s
Large movements Occurrence [2, 8]: 268 ± 36
Inactivity Duration [2, 9]: 566.4 ± 44.3 s
Large movements Duration [2, 9]: 28.9 ± 9.2 s
Large movements Occurrence [2, 9]: 101 ± 29
Inactivity Duration [2, 10]: 334.0 ± 23.2 s
Large movements Duration [2, 10]: 87.0 ± 7.6 s
Large movements Occurrence [2, 10]: 297 ± 22
Inactivity Duration [2, 11]: 525.8 ± 28.6 s
Large movements Duration [2, 11]: 34.5 ± 6.2 s
Large movements Occurrence [2, 11]: 125 ± 18
Inactivity Duration [2, 12]: 342.2 ± 33.3 s
Large movements Duration [2, 12]: 89.1 ± 12.4 s
Large movements Occurrence [2, 12]: 313 ± 38
Inactivity Duration [2, 13]: 530.5 ± 38.0 s
Large movements Duration [2, 13]: 31.1 ± 6.5 s
Large movements Occurrence [2, 13]: 113 ± 17
Inactivity Duration [2, 14]: 333.1 ± 26.9 s
Large movements Duration [2, 14]: 84.0 ± 11.2 s
Large movements Occurrence [2, 14]: 298 ± 37
Inactivity Duration [2, 15]: 515.0 ± 53.0 s
Large movements Duration [2, 15]: 30.9 ± 6.4 s
Large movements Occurrence [2, 15]: 120 ± 26
sedative effect ([2]; rats, 0.3, 1, 3 and 10 mg/kg i.p., 45 minutes and 3 hours after administration): no sedative effects at any time
inhibitory activity against monoamine oxidase isoform A [3]: no inhibitory activity
Dopamine Transporter (DAT) binding activity [4]: lack Dopamine Transporter (DAT) binding activity
inhibitory activity against 5-hydroxytryptamine isoform 1d [5]: no inhibitory activity
